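Grown in 96-well plates, cells were treated for 48 hours with each compound at five concentrations. Insufficient inhibition: endpoint recorded as highest concentration tested. Here, GI50 denotes the concentration required for 50% inhibition of growth.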 Activity calls are given as the source filed them. Rule as the data show it: active = GI50 up to about 1.1 µM and inactive = higher.
Key:
Assay in all cases: growth of human tumour cells (NCI), 48 h
A498 = system: A498
A549 = system: A549
ACHN = system: ACHN
CAKI-1 = system: CAKI-1
CCRF-CEM = system: CCRF-CEM
EKVX = system: EKVX
HOP-92 = system: HOP-92
HT-29 = system: HT-29
Hs-578T = system: Hs-578T
KM12 = system: KM12
MDA-MB-231 = system: MDA-MB-231
MDA-N = system: MDA-N
OVCAR-4 = system: OVCAR-4
PC-3 = system: PC-3
SF-268 = system: SF-268
SK-MEL-2 = system: SK-MEL-2
SR = system: SR
SW-620 = system: SW-620
T47D = system: T47D
M19-MEL = system: M19-MEL

SMILES	GI50 (A498)	GI50 (A549)	GI50 (ACHN)	GI50 (CAKI-1)	GI50 (CCRF-CEM)	GI50 (EKVX)	GI50 (HOP-92)	GI50 (HT-29)	GI50 (Hs-578T)	GI50 (KM12)	GI50 (MDA-MB-231)	GI50 (MDA-N)	GI50 (OVCAR-4)	GI50 (PC-3)	GI50 (SF-268)	GI50 (SK-MEL-2)	GI50 (SR)	GI50 (SW-620)	GI50 (T47D)	GI50 (M19-MEL)
COc1ccc(/N=N/C(=N\c2ccc(Cl)cc2)c2ccc(N(CCC#N)CCC#N)cc2)cc1	10.4 µM (inactive)	47.6 µM (inactive)	19.9 µM (inactive)	27.2 µM (inactive)	< 0.01 µM (active)	51.4 µM (inactive)	33.2 µM (inactive)	> 100 µM (inactive)	87.9 µM (inactive)	15.6 µM (inactive)	14.8 µM (inactive)	37.4 µM (inactive)	10.1 µM (inactive)	25.5 µM (inactive)	41.3 µM (inactive)	0.851 µM (active)	0.834 µM (active)	24.7 µM (inactive)	1.71 µM (inactive)	
Cc1ccc([N+](=O)[O-])c2c(NCCNC(=O)Cn3ccnc3[N+](=O)[O-])ccnc12	31.6 µM (inactive)	48.5 µM (inactive)	44.2 µM (inactive)	31.8 µM (inactive)	> 100 µM (inactive)	> 100 µM (inactive)	26.5 µM (inactive)	32.4 µM (inactive)	28.3 µM (inactive)	52.2 µM (inactive)	32 µM (inactive)	69.5 µM (inactive)	33.3 µM (inactive)	28.8 µM (inactive)	36.5 µM (inactive)	43.6 µM (inactive)	> 100 µM (inactive)	37.7 µM (inactive)	35.2 µM (inactive)	
COC(=O)C1=C(C)NC2=C(C(=O)c3ccccc32)C1c1c[nH]nc1-c1ccccc1 (stereo not drawn)	48.5 µM (inactive)	47.6 µM (inactive)	35.2 µM (inactive)	63.8 µM (inactive)	40.3 µM (inactive)	16.1 µM (inactive)	> 100 µM (inactive)	24.3 µM (inactive)	21.5 µM (inactive)	86.7 µM (inactive)	30.1 µM (inactive)	51.5 µM (inactive)	54.7 µM (inactive)	52.1 µM (inactive)	26.2 µM (inactive)	33.7 µM (inactive)	24.4 µM (inactive)	59.3 µM (inactive)	90.6 µM (inactive)	
C[C@]12CC[C@H]3[C@@H](CC[C@]4(O)C[C@@H](O)CC[C@]34C=O)[C@@]1(O)CC[C@@H]2C1=CC(=O)OC1 [STROPHANTHIDIN]	0.562 µM (active)	0.159 µM (active)	0.142 µM (active)	0.19 µM (active)	0.488 µM (active)	0.361 µM (active)	1.25 µM (inactive)	0.406 µM (active)	0.682 µM (active)	1.94 µM (inactive)	2.65 µM (inactive)	0.372 µM (active)	0.298 µM (active)	0.453 µM (active)	0.397 µM (active)	1.61 µM (inactive)	0.386 µM (active)	0.528 µM (active)	0.697 µM (active)	
COc1ccc(/C(Cl)=C(\C=O)c2ccc(Br)cc2)cc1OC	88.9 µM (inactive)	62.5 µM (inactive)	> 72.6 µM (inactive)	> 100 µM (inactive)		> 48.4 µM (inactive)	17.7 µM (inactive)	> 100 µM (inactive)		> 100 µM (inactive)			> 100 µM (inactive)		23.2 µM (inactive)	16.5 µM (inactive)		> 100 µM (inactive)		> 100 µM (inactive)
Nc1ncnc2c1ccn2C1OC2COP(=O)(O)OC2C1O (stereo not drawn)	1.15 µM (inactive)	0.365 µM (active)	0.0412 µM (active)	0.0904 µM (active)	0.773 µM (active)	2.64 µM (inactive)	0.462 µM (active)	0.137 µM (active)	0.502 µM (active)	0.363 µM (active)	0.33 µM (active)	0.379 µM (active)	0.174 µM (active)	0.163 µM (active)	0.46 µM (active)	0.458 µM (active)	0.173 µM (active)	0.261 µM (active)	0.989 µM (active)	
CC(=O)Nc1ccc(C(=O)NN2C(=O)C(Cl)C2c2ccc([N+](=O)[O-])cc2)cc1 (stereo not drawn)	> 100 µM (inactive)	> 100 µM (inactive)	> 100 µM (inactive)	> 100 µM (inactive)	> 100 µM (inactive)	> 100 µM (inactive)	> 100 µM (inactive)	> 100 µM (inactive)					> 100 µM (inactive)		> 100 µM (inactive)	> 100 µM (inactive)		> 100 µM (inactive)		> 100 µM (inactive)
Nc1ccc(C2=Nc3ccccc3SC(c3ccccc3O)C2)cc1 (stereo not drawn)	7.13 µM (inactive)	51.2 µM (inactive)	42.2 µM (inactive)	58.9 µM (inactive)	12.4 µM (inactive)	99.8 µM (inactive)		42.8 µM (inactive)		25.5 µM (inactive)			51.6 µM (inactive)		33.7 µM (inactive)	> 100 µM (inactive)		33.7 µM (inactive)		50 µM (inactive)
O=C1CCC(c2ccccc2)(c2ccccc2)CC1	> 100 µM (inactive)	49.4 µM (inactive)	> 100 µM (inactive)	> 100 µM (inactive)	19.8 µM (inactive)	92.3 µM (inactive)	> 100 µM (inactive)	55.5 µM (inactive)	81.1 µM (inactive)	> 100 µM (inactive)	> 100 µM (inactive)	45.6 µM (inactive)	> 100 µM (inactive)	73.6 µM (inactive)	> 100 µM (inactive)	> 100 µM (inactive)	37.8 µM (inactive)	82.2 µM (inactive)	41.5 µM (inactive)	
O=C1OC(c2ccccc2)=N/C1=C\c1ccc(Br)cc1	> 100 µM (inactive)	> 100 µM (inactive)	> 100 µM (inactive)	> 100 µM (inactive)	26.4 µM (inactive)	> 100 µM (inactive)	> 100 µM (inactive)	> 100 µM (inactive)	> 100 µM (inactive)	> 100 µM (inactive)	> 100 µM (inactive)	> 100 µM (inactive)	> 100 µM (inactive)	> 100 µM (inactive)	> 100 µM (inactive)	> 100 µM (inactive)	66.2 µM (inactive)	> 100 µM (inactive)	> 100 µM (inactive)	
CC[C@@]1(O)C(=O)OCc2c1cc1n(c2=O)Cc2c-1nc1ccccc1c2/C=N\NC(=O)CN	0.488 µM (active)	0.687 µM (active)	< 0.0197 µM (active)	0.131 µM (active)	< 0.0163 µM (active)	12 µM (inactive)	1.15 µM (inactive)	1.68 µM (inactive)	> 40.5 µM (inactive)	6.14 µM (inactive)	23 µM (inactive)	1.57 µM (inactive)	9.46 µM (inactive)	4.73 µM (inactive)	0.0387 µM (active)	23.8 µM (inactive)	< 0.0125 µM (active)	0.315 µM (active)	0.0486 µM (active)	
C=C1C(=O)O[C@H]2[C@H]1[C@H](OC(=O)/C(C)=C\C)C[C@]1(CO1)[C@@H]1[C@H](OC(C)=O)C=C(C)[C@]21O [EUPAROTIN ACETATE]	1.24 µM (inactive)	69.2 µM (inactive)	10.6 µM (inactive)	17.3 µM (inactive)	2.36 µM (inactive)	17 µM (inactive)	15 µM (inactive)	12.4 µM (inactive)	> 56.2 µM (inactive)	19 µM (inactive)	16.5 µM (inactive)	13.2 µM (inactive)	32.8 µM (inactive)	23.1 µM (inactive)	19.2 µM (inactive)	25.5 µM (inactive)	3.64 µM (inactive)	8.85 µM (inactive)	14.5 µM (inactive)	
CC(=O)OC1[C@@H](OC(C)=O)CN(OCc2ccccc2)C[C@H]1OC(C)=O (stereo partly drawn)	> 100 µM (inactive)	> 100 µM (inactive)	> 100 µM (inactive)	> 100 µM (inactive)	> 100 µM (inactive)	> 100 µM (inactive)	> 100 µM (inactive)	> 100 µM (inactive)	> 100 µM (inactive)	> 100 µM (inactive)	> 100 µM (inactive)	> 100 µM (inactive)	> 100 µM (inactive)	> 100 µM (inactive)	> 100 µM (inactive)	> 100 µM (inactive)	> 100 µM (inactive)	> 100 µM (inactive)	> 100 µM (inactive)	
CC(=O)OC1C[C@H]2C(OC(=O)c3ccccc3)C3C4(OC(C)=O)COC4C[C@H](OC(C)=O)[C@@]3(C)C(OC(C)=O)[C@H](OC(C)=O)C(=C1C)C2(C)C (stereo partly drawn)	24.4 µM (inactive)	31.2 µM (inactive)	21 µM (inactive)	13.5 µM (inactive)	36.7 µM (inactive)	50.7 µM (inactive)		49.3 µM (inactive)		59.4 µM (inactive)			36.7 µM (inactive)		24.9 µM (inactive)	33.3 µM (inactive)		57.9 µM (inactive)		57.9 µM (inactive)
O=c1c2ncn(C3CC(O)C(CO)O3)c2nnn1Cc1ccccc1[N+](=O)[O-] (stereo not drawn)	> 100 µM (inactive)	> 100 µM (inactive)	> 100 µM (inactive)	> 100 µM (inactive)	> 100 µM (inactive)	> 100 µM (inactive)	57.8 µM (inactive)	> 100 µM (inactive)	> 100 µM (inactive)	> 100 µM (inactive)	> 100 µM (inactive)	> 100 µM (inactive)	> 100 µM (inactive)	> 100 µM (inactive)	> 100 µM (inactive)	4.78 µM (inactive)	3.13 µM (inactive)	> 100 µM (inactive)	> 100 µM (inactive)	
Cc1c(C(=O)c2ccccc2C(=O)O)c2ccccc2n1C	> 100 µM (inactive)	> 100 µM (inactive)	> 100 µM (inactive)	> 100 µM (inactive)	> 100 µM (inactive)	> 100 µM (inactive)		> 100 µM (inactive)		> 100 µM (inactive)			> 100 µM (inactive)			> 100 µM (inactive)		> 100 µM (inactive)		> 100 µM (inactive)

Source: ChEMBL document CHEMBL1201862, “PubChem BioAssay data set” (2004)
